From US6355799B1, “Substituted benzene compounds, process for their preparation, and herbicidal and defoliant compositions containing them” (ISK Americas Incorporated, priority 1997, dated 2002)

Assays:
Assay type in all cases: in vivo
[1] = test system: redroot pigweed (Amaranthus retroflexus, AMARE); experiment: Pre-emerge test, greenhouse herbicide activity screening; details: rated 14 days after application, 0 = no damage, 100 = complete death
Procedure, shortened: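 Visual ratings on a 0-100 scale (0 no damage, 100 all plants dead) were taken at 14 days after treatment. Rates of 15-1000 g ai/ha in acetone, 187 l/ha, were sprayed onto soil one day after planting (pre-emerge) or onto 2-3 leaf plants with 0.25% v/v surfactant (post-emerge).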

[2] = test system: upland rice (Oryza sp., var. Tebonnet, RICE); experiment: Post-emerge test, crop safety; details: post-emerge, 14 days after application, rating scale 0-100
Procedure, shortened: (§1)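 Each test used a mechanized track sprayer delivering 187 l/ha of acetone solution at 15–1000 g ai/ha. Post-emerge foliage at 2–3 leaves was treated with added 0.25% v/v non-ionic surfactant and bottom-watered only. Injury was assessed on day 14, where 100 means total kill.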

[3] = test system: field corn (Zea mays L., var. Dekalb 535, CORN); experiment: Post-emerge test, crop safety; details: post-emerge, 14 days after application, rating scale 0-100
Procedure, shortened: as §1

[4] = test system: upland rice (Oryza sp., var. Tebonnet, RICE); experiment: Pre-emerge test, crop safety; details: rated 14 days after application, 0 = no damage, 100 = complete death
Procedure, shortened: (§2)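 Fourteen days after spraying, crop and weed injury was graded visually from 0, no effect, to 100, every plant dead. Test substances were dissolved in acetone and applied at 15–1000 g ai/ha with a flat-fan nozzle. Application was either pre-emergence, one day after sowing, or post-emergence at the 2–3 leaf stage.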

[5] = test system: field corn (Zea mays L., var. Dekalb 535, CORN); experiment: Pre-emerge test, crop safety; details: rated 14 days after application, 0 = no damage, 100 = complete death
Procedure, shortened: as §2

[6] = test system: large crabgrass (Digitaria sanguinalis, DIGSA); experiment: Pre-emerge test, greenhouse herbicide activity screening; details: rated 14 days after application, 0 = no damage, 100 = complete death
Procedure, shortened: (§3)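 Plants grown in 10 cm pots of sandy loam mix received acetone-dissolved compounds through a moving flat-fan nozzle. Doses ranged from 15 to 1000 g ai/ha. Pre-emerge pots were seeded one day earlier, post-emerge pots 8–21 days earlier. Fourteen days on, each pot was graded 0–100 for damage.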

[7] = test system: lambsquarters (Chenopodium album, CHEAL); experiment: as above; details: rated 14 days after application, 0 = no damage, 100 = complete death
Procedure, shortened: as §3

[8] = test system: velvetleaf (Abutilon theophrasti, ABUTH); experiment: as above; details: rated 14 days after application, 0 = no damage, 100 = complete death
Procedure, shortened: as §3

[9] = test system: sicklepod (Cassia obtusifolia, CASOB); experiment: as above; details: rated 14 days after application, 0 = no damage, 100 = complete death
Procedure, shortened: as §3

[10] = test system: green foxtail (Setaria viridis, SETVI); experiment: as above; details: rated 14 days after application, 0 = no damage, 100 = complete death
Procedure, shortened: as §3

[11] = test system: barnyardgrass (Echinochloa crus-galli, ECHCG); experiment: as above; details: rated 14 days after application, 0 = no damage, 100 = complete death
Procedure, shortened: as §3

[12] = test system: johnsongrass (Sorghum halepense, SORHA); experiment: as above; details: rated 14 days after application, 0 = no damage, 100 = complete death
Procedure, shortened: as §3

[13] = test system: ivyleaf morningglory (Ipomoea hederacea, IPOHE); experiment: as above; details: rated 14 days after application, 0 = no damage, 100 = complete death
Procedure, shortened: as §3

[14] = test system: large crabgrass (Digitaria sanguinalis, DIGSA); experiment: Post-emerge test, greenhouse herbicide activity screening; details: post-emerge, 14 days after application, rating scale 0-100
Procedure, shortened: (§4)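 Compounds in acetone were track-sprayed at 15–1000 g ai/ha: pre-emergence onto soil sown the previous day, then top-watered to incorporate and later bottom-watered; post-emergence onto 2–3 leaf plants with 0.25% v/v surfactant, bottom-watered only. Ratings on a 0–100 phytotoxicity scale were taken at day 14.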

[15] = test system: redroot pigweed (Amaranthus retroflexus, AMARE); experiment: as above; details: post-emerge, 14 days after application, rating scale 0-100
Procedure, shortened: as §4

[16] = test system: lambsquarters (Chenopodium album, CHEAL); experiment: as above; details: post-emerge, 63 g ai/ha, 14 days after application, rating scale 0-100
Procedure, shortened: as §4

[17] = test system: velvetleaf (Abutilon theophrasti, ABUTH); experiment: as above; details: post-emerge, 14 days after application, rating scale 0-100
Procedure, shortened: as §4

[18] = test system: sicklepod (Cassia obtusifolia, CASOB); experiment: as above; details: post-emerge, 14 days after application, rating scale 0-100
Procedure, shortened: as §4

[19] = test system: green foxtail (Setaria viridis, SETVI); experiment: as above; details: post-emerge, 14 days after application, rating scale 0-100
Procedure, shortened: as §4

[20] = test system: barnyardgrass (Echinochloa crus-galli, ECHCG); experiment: as above; details: post-emerge, 14 days after application, rating scale 0-100
Procedure, shortened: as §4

[21] = test system: johnsongrass (Sorghum halepense, SORHA); experiment: as above; details: post-emerge, 14 days after application, rating scale 0-100
Procedure, shortened: as §4

[22] = test system: ivyleaf morningglory (Ipomoea hederacea, IPOHE); experiment: as above; details: post-emerge, 14 days after application, rating scale 0-100
Procedure, shortened: as §4

**Q.** How did the “Pre-emerge Herbicidal Activity, phytotoxicity rating (0-100), AMARE” value ([1]; 63 g ai/ha) turn out when `COc1c(Cl)cc(F)c(-n2c(=S)cc(C(F)(F)F)n(C)c2=O)c1NC(=S)c1ccc(F)cc1F` [2-46] was run?
**A.** 100

**Q.** And the “Pre-emerge Herbicidal Activity, phytotoxicity rating (0-100), AMARE” value ([1]; 250 g ai/ha)?
**A.** 100

**Q.** What about the “phytotoxicity rating RICE” value ([2]; 63 g ai/ha) of the same compound?
**A.** 10

**Q.** What about the “phytotoxicity rating RICE” value ([2]; 250 g ai/ha) of the same compound?
**A.** 30

**Q.** What about the “phytotoxicity rating CORN” value ([3]; 63 g ai/ha) of the same compound?
**A.** 0

**Q.** And the “phytotoxicity rating CORN” value ([3]; 250 g ai/ha)?
**A.** 20

**Q.** And the “Pre-emerge phytotoxicity rating (0-100), crop damage, RICE” value ([4]; 63 g ai/ha)?
**A.** 20

**Q.** And the “Pre-emerge phytotoxicity rating (0-100), crop damage, RICE” value ([4]; 250 g ai/ha)?
**A.** 70

**Q.** And the “Pre-emerge phytotoxicity rating (0-100), crop damage, CORN” value ([5]; 63 g ai/ha)?
**A.** 0

**Q.** What about the “Pre-emerge phytotoxicity rating (0-100), crop damage, CORN” value ([5]; 250 g ai/ha) of the same compound?
**A.** 90

**Q.** What about the “Pre-emerge Herbicidal Activity, phytotoxicity rating (0-100), DIGSA” value ([6]; 63 g ai/ha) of the same compound?
**A.** 30

**Q.** And the “Pre-emerge Herbicidal Activity, phytotoxicity rating (0-100), DIGSA” value ([6]; 250 g ai/ha)?
**A.** 70

**Q.** And the “Pre-emerge Herbicidal Activity, phytotoxicity rating (0-100), CHEAL” value ([7]; 63 g ai/ha)?
**A.** 100

**Q.** And the “Pre-emerge Herbicidal Activity, phytotoxicity rating (0-100), CHEAL” value ([7]; 250 g ai/ha)?
**A.** 100

**Q.** And the “Pre-emerge Herbicidal Activity, phytotoxicity rating (0-100), ABUTH” value ([8]; 63 g ai/ha)?
**A.** 50

**Q.** And the “Pre-emerge Herbicidal Activity, phytotoxicity rating (0-100), ABUTH” value ([8]; 250 g ai/ha)?
**A.** 100

**Q.** What about the “Pre-emerge Herbicidal Activity, phytotoxicity rating (0-100), CASOB” value ([9]; 63 g ai/ha) of the same compound?
**A.** 30

**Q.** And the “Pre-emerge Herbicidal Activity, phytotoxicity rating (0-100), CASOB” value ([9]; 250 g ai/ha)?
**A.** 100

**Q.** What about the “Pre-emerge Herbicidal Activity, phytotoxicity rating (0-100), SETVI” value ([10]; 63 g ai/ha) of the same compound?
**A.** 90

**Q.** What about the “Pre-emerge Herbicidal Activity, phytotoxicity rating (0-100), SETVI” value ([10]; 250 g ai/ha) of the same compound?
**A.** 100

**Q.** And the “Pre-emerge Herbicidal Activity, phytotoxicity rating (0-100), ECHCG” value ([11]; 63 g ai/ha)?
**A.** 0

**Q.** And the “Pre-emerge Herbicidal Activity, phytotoxicity rating (0-100), ECHCG” value ([11]; 250 g ai/ha)?
**A.** 50

**Q.** And the “Pre-emerge Herbicidal Activity, phytotoxicity rating (0-100), SORHA” value ([12]; 63 g ai/ha)?
**A.** 30

**Q.** And the “Pre-emerge Herbicidal Activity, phytotoxicity rating (0-100), SORHA” value ([12]; 250 g ai/ha)?
**A.** 90

**Q.** What about the “Pre-emerge Herbicidal Activity, phytotoxicity rating (0-100), IPOHE” value ([13]; 63 g ai/ha) of the same compound?
**A.** 0

**Q.** And the “Pre-emerge Herbicidal Activity, phytotoxicity rating (0-100), IPOHE” value ([13]; 250 g ai/ha)?
**A.** 60

**Q.** And the “phytotoxicity rating DIGSA” value ([14]; 63 g ai/ha)?
**A.** 0

**Q.** What about the “phytotoxicity rating DIGSA” value ([14]; 250 g ai/ha) of the same compound?
**A.** 0

**Q.** And the “phytotoxicity rating AMARE” value ([15]; 63 g ai/ha)?
**A.** 30

**Q.** What about the “phytotoxicity rating AMARE” value ([15]; 250 g ai/ha) of the same compound?
**A.** 70

**Q.** What about the “phytotoxicity rating CHEAL” value [16] of the same compound?
**A.** 10

**Q.** And the “phytotoxicity rating ABUTH” value ([17]; 63 g ai/ha)?
**A.** 50

**Q.** What about the “phytotoxicity rating ABUTH” value ([17]; 250 g ai/ha) of the same compound?
**A.** 100

**Q.** What about the “phytotoxicity rating CASOB” value ([18]; 63 g ai/ha) of the same compound?
**A.** 0

**Q.** And the “phytotoxicity rating CASOB” value ([18]; 250 g ai/ha)?
**A.** 0

**Q.** And the “phytotoxicity rating SETVI” value ([19]; 63 g ai/ha)?
**A.** 0

**Q.** What about the “phytotoxicity rating SETVI” value ([19]; 250 g ai/ha) of the same compound?
**A.** 30

**Q.** And the “phytotoxicity rating ECHCG” value ([20]; 63 g ai/ha)?
**A.** 0

**Q.** And the “phytotoxicity rating ECHCG” value ([20]; 250 g ai/ha)?
**A.** 10

**Q.** And the “phytotoxicity rating SORHA” value ([21]; 63 g ai/ha)?
**A.** 0

**Q.** What about the “phytotoxicity rating SORHA” value ([21]; 250 g ai/ha) of the same compound?
**A.** 0

**Q.** And the “phytotoxicity rating IPOHE” value ([22]; 63 g ai/ha)?
**A.** 0

**Q.** What about the “phytotoxicity rating IPOHE” value ([22]; 250 g ai/ha) of the same compound?
**A.** 20
